The source of these data is US20250057958A1, “CYTOTOXICITY TARGETING CHIMERAS FOR CCR2-EXPRESSING CELLS” (GLAXOSMITHKLINE INTELLECTUAL PROPERTY DEVELOPMENT LIMITED, priority 2022, published 2025).

SMILES strings stand for the structures. pIC50: −log10 of the molar value. Bounds are passed on as bounds.

Assay [1] concerns the target T1, CHOK1 cells engineered to overexpress human CCR2 (Homo sapiens, UniProt P41597).
T1 construct: expressed in transfected cells; host or cells: CHOK1 cells
Nature of the assay: Antibody dependent cellular cytotoxicity (ADCC) reporter assay. In kind it is cell-based. Particulars: with anti-cotinine antibody (SEQ ID NO: 11/12, human IgG1 Fc S239D/I332E); Jurkat FcγRIIIa NFAT-luciferase reporter cells; 12-18 hours; average if more than one run; read-out: ADCC Reporter Assay pEC50 (converted). As for the experimental part:
An antibody dependent cellular cytoxocity reporter assay was conducted using the following four assay components: (i) ARM compound of Formula (I) targeting CCR2 (concentrations ranging from 1 pM to 10 μM) (ii) anti-cotinine antibody having a heavy chain sequence of SEQ ID NO: 11 and a light chain sequence of SEQ ID NO: 12 (rabbit variable region with human IgG1 Fc domain containing a DE mutation (S239D/I332E)) (concentrations ranging from 0.01 μg/mL to 200 μg/mL); (iii) target cells: CHOK1 cells engineered to overexpress either human CCR2 (typically 1000-20,000 cells perwell) and (iv) reporter cells: Jurkat cells engineered to express FcγRIIIa with the reporter gene luciferase under the control of the NFAT promoter (typically 3000-75,000 cells per well). Reagents were combined in a final volume of 20 μL in a 384—well tissue culture treated plate. All four assay components were incubated together for about 12-18 hours. Thereafter, BioGlo Detection reagent (Promega) was added to the wells to lyse the cells and provide a substrate for the luciferase reporter protein. Luminescence signal was measured on a microplate reader and signal:background was calculated by dividing the signal of a test well by the signal obtained when no ARM compound of Formula (I) was added. EC50 calculations were done using Graphpad Prism Software, specifically a nonlinear regression curve fit (Y=Bottom+(Top−Bottom)/(1+10 ^((Log EC50−X)*HillSlope))).
ARMs compounds of Formula (I) of the invention were tested for ADCC activity in the above assay in or more experimental runs and the results are shown in Table 3 below. Potency of the compounds of Formula (I) of the invention is reported as a pEC50 value. The pEC50 value is the negative log of the EC50 value, wherein the EC50 value is the half maximal effective concentration measured in molar (M). For compounds tested in more than one experimental run, the pEC50 value is reported as an average.

Assay [2] deals with human alpha1 nicotinic acetylcholine (nACh) receptor (Homo sapiens, UniProt P02708+Q07001). Briefly: Nicotinic acetylcholine receptor antagonism assay (IONFlux automated patch clamp). Format: cell-based. Particulars: for pIC50: nAChR antagonism, stimulated with ACh, average if more than one run. The text has this:
Cells expressing human alpha1 nicotinic acetylcholine (nACh) receptor (nAChR) were washed and dissociated using Trypsin containing buffer. Cells were then washed and seeded at a density of 3-5 million cells/mL and allowed to grow for 3 days. […] The receptor was then stimulated via addition of acetylcholine (ACh) and activation of the receptor was monitored via the IONFlux automated patch clamp system. IonFlux Data Analyzer software was utilized to perform leak subtraction and measure (min) peak current amplitude.
Data processing: (1) Current values recorded for vehicle only applications in individual traps/patterns were subtracted from corresponding current amplitude values for control, test article and control+test article. (2) Control response was calculated as % of the average response of the 3rd out of total 3 ACh (10 mM) applications alone. In rare situations, if the 3rd ACh response was obscured due to technical artifacts, the 2nd and/or 1st ACh (10 mM) application was considered as control. The peak current amplitude generated in the presence of each test article concentration was then used to calculate the % inhibition as compared to control response (10 mM ACh alone). These estimates were further corrected for vehicle response and run down corrected by normalizing with time matched control responses (10 mM ACh alone). The corrected percentages were then fit with a non-linear function in GraphPad Prism 6 (or later versions) to determine the IC50.
Exclusion criteria: (i) any n's with poor recording quality, (ii) control current amplitude <500 pA or (iii) significant outliers, as determined by the Grubbs' test.
ARMs compounds of Formula (I) of the invention were tested for antagonism of the nAChR in the above assay in […] experimental runs and the results are shown in Table 5 below. Antagonistic activity of the compounds of Formula (I) of the invention is reported as an IC50 value (half maximal inhibitory concentration) and the maximum percentage antagonism observed at the highest concentration of compound of Formula (I) tested, as indicated in Table 5. For compounds tested in more than one experimental run, the IC50 value is reported as an average.

Sequence of human alpha1 nicotinic acetylcholine (nACh) receptor (P02708 21-457): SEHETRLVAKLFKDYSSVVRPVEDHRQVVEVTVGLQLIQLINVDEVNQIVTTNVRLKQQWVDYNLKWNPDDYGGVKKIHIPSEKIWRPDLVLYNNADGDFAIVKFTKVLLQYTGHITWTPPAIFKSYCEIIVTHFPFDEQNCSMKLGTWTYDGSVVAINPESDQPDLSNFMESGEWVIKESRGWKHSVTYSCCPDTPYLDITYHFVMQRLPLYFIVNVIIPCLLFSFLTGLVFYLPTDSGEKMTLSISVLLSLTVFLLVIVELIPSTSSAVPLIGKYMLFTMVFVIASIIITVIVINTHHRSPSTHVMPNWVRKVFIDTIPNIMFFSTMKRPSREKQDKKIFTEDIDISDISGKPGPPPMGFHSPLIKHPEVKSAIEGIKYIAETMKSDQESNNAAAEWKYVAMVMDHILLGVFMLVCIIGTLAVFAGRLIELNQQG
Sequence of human alpha1 nicotinic acetylcholine (nACh) receptor (P11230 24-501 partner): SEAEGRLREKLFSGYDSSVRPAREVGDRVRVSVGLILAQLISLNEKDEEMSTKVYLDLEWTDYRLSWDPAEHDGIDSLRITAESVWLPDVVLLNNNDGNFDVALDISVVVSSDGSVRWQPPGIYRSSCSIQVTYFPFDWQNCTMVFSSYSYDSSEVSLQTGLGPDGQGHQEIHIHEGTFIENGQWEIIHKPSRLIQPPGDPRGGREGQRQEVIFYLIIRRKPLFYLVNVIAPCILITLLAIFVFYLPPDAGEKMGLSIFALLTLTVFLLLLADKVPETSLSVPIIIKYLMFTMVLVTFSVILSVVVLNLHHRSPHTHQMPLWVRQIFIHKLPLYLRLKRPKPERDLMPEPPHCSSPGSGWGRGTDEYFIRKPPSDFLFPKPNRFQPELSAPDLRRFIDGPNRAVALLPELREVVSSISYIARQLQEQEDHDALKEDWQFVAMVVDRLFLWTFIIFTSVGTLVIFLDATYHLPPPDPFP
Sequence of human alpha1 nicotinic acetylcholine (nACh) receptor (Q07001 22-517): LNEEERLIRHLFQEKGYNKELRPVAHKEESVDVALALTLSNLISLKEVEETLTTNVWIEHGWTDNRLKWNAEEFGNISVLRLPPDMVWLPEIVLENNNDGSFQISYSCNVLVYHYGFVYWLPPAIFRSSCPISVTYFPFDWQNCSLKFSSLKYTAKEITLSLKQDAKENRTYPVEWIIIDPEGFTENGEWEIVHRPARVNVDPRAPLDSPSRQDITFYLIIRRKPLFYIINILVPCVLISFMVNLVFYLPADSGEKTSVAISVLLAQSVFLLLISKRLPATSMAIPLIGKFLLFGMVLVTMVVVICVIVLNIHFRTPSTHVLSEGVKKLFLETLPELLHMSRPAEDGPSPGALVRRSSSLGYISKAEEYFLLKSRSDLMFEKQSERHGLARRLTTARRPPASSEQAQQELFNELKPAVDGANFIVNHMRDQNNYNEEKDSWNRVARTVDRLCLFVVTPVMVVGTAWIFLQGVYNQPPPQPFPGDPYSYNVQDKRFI

With `CC(=O)N[C@@H]1C[C@H](NC(C)(C)C)CC[C@@H]1N1CC[C@H](Nc2nc(NCC3CCN(C(=O)[C@H]4CC[C@H](NC(=O)CCCO[C@H]5CC[C@H](OCCNC(=O)[C@H]6CC(=O)N(C)[C@@H]6c6cccnc6)CC5)CC4)CC3)nc3ccc(C(F)(F)F)cc23)C1=O` [Example 2, (2S,3S)-N-(2-(((1R,4S)-4-(4-(((1S,4R)-4-(4-(((4-(((S)-1-((1S,2R,4R)-2-Acetamido-4-(tert-butylamino)cyclohexyl)-2-oxopyrrolidin-3-yl)amino)-6-(trifluoromethyl)quinazolin-2-yl)amino)methyl)piperidine-1-carbonyl)cyclohexyl)amino)-4-oxobutoxy)cyclohexyl)oxy)ethyl)-1-methyl-5-oxo-2-(pyridin-3-yl)pyrrolidine-3-carboxamide], the EC50 in assay [1] was 0.316 nM. The Emax at 11.11 µM in assay [2] (maximum percentage antagonism at highest concentration tested, 11.11 μM, read-out: Maximum Response (%)) was 9%. The same molecule showed a pIC50 in assay [2] of less than 4.95.
With `CC(=O)N[C@@H]1C[C@H](NC(C)(C)C)CC[C@@H]1N1CC[C@H](Nc2nc(CCNC(=O)[C@H]3CC[C@H](NC(=O)CCCO[C@H]4CC[C@H](OCCNC(=O)[C@H]5CC(=O)N(C)[C@@H]5c5cccnc5)CC4)CC3)nc3ccc(C(F)(F)F)cc23)C1=O` [Example 4, (2S,3S)-N-(2-(((1R,4S)-4-(4-(((1S,4R)-4-((2-(4-(((S)-1-((1S,2R,4R)-2-Acetamido-4-(tert-butylamino)cyclohexyl)-2-oxopyrrolidin-3-yl)amino)-6-(trifluoromethyl)quinazolin-2-yl)ethyl)carbamoyl)cyclohexyl)amino)-4-oxobutoxy)cyclohexyl)oxy)ethyl)-1-methyl-5-oxo-2-(pyridin-3-yl)pyrrolidine-3-carboxamide], in assay [1], the EC50 was 0.251 nM. Further, the Emax at 100 µM in assay [2] (maximum percentage antagonism at highest concentration tested, 100 μM, read-out: Maximum Response (%)) amounted to 48%. Moreover, the pIC50 in assay [2] is less than 4.00.
Regarding `CC(=O)N[C@@H]1C[C@H](N(C)C(C)C)CC[C@@H]1N1CC[C@H](Nc2nc(CCCNC(=O)[C@H]3CC[C@H](NC(=O)CCCO[C@H]4CC[C@H](OCCNC(=O)[C@H]5CC(=O)N(C)[C@@H]5c5cccnc5)CC4)CC3)nc3ccc(C(F)(F)F)cc23)C1=O` [Example 6, (2S,3S)-N-(2-(((1R,4S)-4-(4-(((1S,4R)-4-((3-(4-(((S)-1-((1S,2R,4R)-2-Acetamido-4-(isopropyl(methyl)amino)cyclohexyl)-2-oxopyrrolidin-3-yl)amino)-6-(trifluoromethyl)quinazolin-2-yl)propyl)carbamoyl)cyclohexyl)amino)-4-oxobutoxy)cyclohexyl)oxy)ethyl)-1-methyl-5-oxo-2-(pyridin-3-yl)pyrrolidine-3-carboxamide], the EC50 in assay [1] is 0.158 nM. Further, in assay [2] (maximum percentage antagonism at highest concentration tested, 33.3 μM, read-out: Maximum Response (%)), the Emax at 33.3 µM is 48%. The molecule also had a pIC50 in assay [2] of less than 4.48.
With `CC(=O)N[C@@H]1C[C@H](NC(C)(C)C)CC[C@@H]1N1CC[C@H](Nc2nc(OC3CCN(C(=O)[C@H]4CC[C@H](NC(=O)CCCO[C@H]5CC[C@H](OCCNC(=O)[C@H]6CC(=O)N(C)[C@@H]6c6cccnc6)CC5)CC4)CC3)nc3ccc(C(F)(F)F)cc23)C1=O` [Example 7, (2S,3S)-N-(2-(((1R,4S)-4-(4-(((1S,4R)-4-(4-((4-(((S)-1-((1S,2R,4R)-2-acetamido-4-(tert-butylamino)cyclohexyl)-2-oxopyrrolidin-3-yl)amino)-6-(trifluoromethyl)quinazolin-2-yl)oxy)piperidine-1-carbonyl)cyclohexyl)amino)-4-oxobutoxy)cyclohexyl)oxy)ethyl)-1-methyl-5-oxo-2-(pyridin-3-yl)pyrrolidine-3-carboxamide], the EC50 in assay [1] was 79.4 nM.
The same measure, in the same setting: next, `CC(=O)N[C@@H]1C[C@H](NC(C)(C)C)CC[C@@H]1N1CC[C@H](Nc2nc(OCC3CCN(C(=O)[C@H]4CC[C@H](NC(=O)CCCO[C@H]5CC[C@H](OCCNC(=O)[C@H]6CC(=O)N(C)[C@@H]6c6cccnc6)CC5)CC4)CC3)nc3ccc(C(F)(F)F)cc23)C1=O` [Example 8, (2S,3S)-N-(2-(((1R,4S)-4-(4-(((1S,4R)-4-(4-(((4-(((S)-1-((1S,2R,4R)-2-Acetamido-4-(tert-butylamino)cyclohexyl)-2-oxopyrrolidin-3-yl)amino)-6-(trifluoromethyl)quinazolin-2-yl)oxy)methyl)piperidine-1-carbonyl)cyclohexyl)amino)-4-oxobutoxy)cyclohexyl)oxy)ethyl)-1-methyl-5-oxo-2-(pyridin-3-yl)pyrrolidine-3-carboxamide]: 50.1 nM.
`CC(=O)N[C@@H]1C[C@H](NC(C)(C)C)CC[C@@H]1N1CC[C@H](Nc2nc(C3CCN(C(=O)[C@H]4CC[C@H](NC(=O)CCCO[C@H]5CC[C@H](OCCNC(=O)[C@H]6CC(=O)N(C)[C@@H]6c6cccnc6)CC5)CC4)CC3)nc3ccc(C(F)(F)F)cc23)C1=O` [Example 9, (2S,3S)-N-(2-(((1R,4S)-4-(4-(((1S,4R)-4-(4-(4-(((S)-1-((1S,2R,4R)-2-Acetamido-4-(tert-butylamino)cyclohexyl)-2-oxopyrrolidin-3-yl)amino)-6-(trifluoromethyl)quinazolin-2-yl)piperidine-1-carbonyl)cyclohexyl)amino)-4-oxobutoxy)cyclohexyl)oxy)ethyl)-1-methyl-5-oxo-2-(pyridin-3-yl)pyrrolidine-3-carboxamide]: the EC50 in assay [1] is 0.631 nM. For the same molecule, in assay [2] (maximum percentage antagonism at highest concentration tested, 11.1 μM, read-out: Maximum Response (%)), the Emax at 11.1 µM was found to be 2%. The molecule also gave a pIC50 in assay [2] of less than 4.95.
As to `CC(=O)N[C@@H]1C[C@H](NC(C)(C)C)CC[C@@H]1N1CC[C@H](Nc2nc(NCCNC(=O)[C@H]3CC[C@H](NC(=O)CCCO[C@H]4CC[C@H](OCCNC(=O)[C@H]5CC(=O)N(C)[C@@H]5c5cccnc5)CC4)CC3)nc3ccc(C(F)(F)F)cc23)C1=O` [Example 12, (2S,3S)-N-(2-(((1R,4S)-4-(4-(((1S,4R)-4-((2-((4-(((S)-1-((1S,2R,4R)-2-Acetamido-4-(tert-butylamino)cyclohexyl)-2-oxopyrrolidin-3-yl)amino)-6-(trifluoromethyl)quinazolin-2-yl)amino)ethyl)carbamoyl)cyclohexyl)amino)-4-oxobutoxy)cyclohexyl)oxy)ethyl)-1-methyl-5-oxo-2-(pyridin-3-yl)pyrrolidine-3-carboxamide], the EC50 in assay [1] is 0.251 nM.
As to `CC(=O)N[C@@H]1C[C@H](NC(C)(C)C)CC[C@@H]1N1CC[C@H](Nc2nc(NC3CCN(C(=O)[C@H]4CC[C@H](NC(=O)CCCO[C@H]5CC[C@H](OCCNC(=O)[C@H]6CC(=O)N(C)[C@@H]6c6cccnc6)CC5)CC4)CC3)nc3ccc(C(F)(F)F)cc23)C1=O` [Example 13, (2S,3S)-N-(2-(((1R,4S)-4-(4-(((1S,4R)-4-(4-((4-(((S)-1-((1S,2R,4R)-2Acetamido-4-(tert-butylamino)cyclohexyl)-2-oxopyrrolidin-3-yl)amino)-6-(trifluoromethyl)quinazolin-2-yl)amino)piperidine-1-carbonyl)cyclohexyl)amino)-4-oxobutoxy)cyclohexyl)oxy)ethyl)-1-methyl-5-oxo-2-(pyridin-3-yl)pyrrolidine-3-carboxamide], the EC50 in assay [1] was 0.316 nM. In assay [2] (maximum percentage antagonism at highest concentration tested, 33.33 μM, read-out: Maximum Response (%)), the Emax at 33.33 µM was 68%. For the same molecule, the pIC50 in assay [2] was 5.00.
